# Results published in PubChem BioAssay AID1918994 (Molecular Pharmacology Branch, DTP, NCI, 2023).
# pIC50: −log10 of the molar value. Several values for one entry are separate records, joined by “and”; a condition that tells them apart may be missing. Identical values can stand only once.
# Test system: 292921-168-R-J2-PDC complex spheroid growth
# Experiment: Anticancer human tumor 292921-168-R-J2-PDC patient-derived pancreatic carcinoma cell line growth inhibition [AhR]
# Conditions: for viability, T/C: stronger effect = lower value
# In short: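 Agents were dosed in half-log steps down from roughly clinical Cmax, or from 10 microM where Cmax was unknown, alone and with AhR antagonists. Read-out: percent test/control growth of tumor spheroids containing HUVEC and MSC stromal cells.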
# [1] = curve of first compound, second compound 0.1 µM
# [2] = curve of first compound, second compound 0.316 µM
# [3] = curve of first compound, second compound 1 µM
# [4] = curve of first compound, second compound 3.16 µM
# [5] = curve of first compound, second compound 10 µM
# [6] = second compound 0.1 µM, first compound 0.0316 µM
# [7] = second compound 0.1 µM, first compound 0.1 µM
# [8] = second compound 0.1 µM, first compound 0.316 µM
# [9] = second compound 0.1 µM, first compound 1 µM
# [10] = second compound 0.1 µM, first compound 3.16 µM
# [11] = second compound 0.1 µM, first compound 10 µM
# [12] = second compound 0.316 µM, first compound 0.0316 µM
# [13] = second compound 0.316 µM, first compound 0.1 µM
# [14] = second compound 0.316 µM, first compound 0.316 µM
# [15] = second compound 0.316 µM, first compound 1 µM
# [16] = second compound 0.316 µM, first compound 3.16 µM
# [17] = second compound 0.316 µM, first compound 10 µM
# [18] = second compound 1 µM, first compound 0.0316 µM
# [19] = second compound 1 µM, first compound 0.1 µM
# [20] = second compound 1 µM, first compound 0.316 µM
# [21] = second compound 1 µM, first compound 1 µM
# [22] = second compound 1 µM, first compound 3.16 µM
# [23] = second compound 1 µM, first compound 10 µM
# [24] = second compound 3.16 µM, first compound 0.0316 µM
# [25] = second compound 3.16 µM, first compound 0.1 µM
# [26] = second compound 3.16 µM, first compound 0.316 µM
# [27] = second compound 3.16 µM, first compound 1 µM
# [28] = second compound 3.16 µM, first compound 3.16 µM
# [29] = second compound 3.16 µM, first compound 10 µM
# [30] = second compound 10 µM, first compound 0.0316 µM
# [31] = second compound 10 µM, first compound 0.1 µM
# [32] = second compound 10 µM, first compound 0.316 µM
# [33] = second compound 10 µM, first compound 1 µM
# [34] = second compound 10 µM, first compound 3.16 µM
# [35] = second compound 10 µM, first compound 10 µM
# 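Also: spheroids exposed to compounds for seven days after three days of growth.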
compound,measurement,setting,value
COc1ccc([C@@H](O)c2cc(-c3ncnc4cc(N5CCOCC5)ccc34)c(F)cc2Cl)nn1 + CC(CO)NC(=O)c1cc(-c2ccc(Cl)cc2)nn(-c2cnn(C)c2)c1=O,pIC50,[1],5.74
same,pIC50,[2],5.74
same,pIC50,[3],5.72
same,pIC50,[4],5.88
same,pIC50,[5],5.97
same,"viability, T/C",[6],94.5%
same,"viability, T/C",[7],97.8%
same,"viability, T/C",[8],86.6%
same,"viability, T/C",[9],59.1%
same,"viability, T/C",[10],41.9%
same,"viability, T/C",[11],25.1%
same,"viability, T/C",[12],101%
same,"viability, T/C",[13],95.1%
same,"viability, T/C",[14],87%
same,"viability, T/C",[15],60.5%
same,"viability, T/C",[16],39.9%
same,"viability, T/C",[17],24.7%
same,"viability, T/C",[18],102%
same,"viability, T/C",[19],98.9%
same,"viability, T/C",[20],78.4%
same,"viability, T/C",[21],61.4%
same,"viability, T/C",[22],42.2%
same,"viability, T/C",[23],28.1%
same,"viability, T/C",[24],85.8%
same,"viability, T/C",[25],82.6%
same,"viability, T/C",[26],78.6%
same,"viability, T/C",[27],52.9%
same,"viability, T/C",[28],36%
same,"viability, T/C",[29],24.3%
same,"viability, T/C",[30],68%
same,"viability, T/C",[31],77.1%
same,"viability, T/C",[32],68.9%
same,"viability, T/C",[33],49.9%
same,"viability, T/C",[34],31.9%
same,"viability, T/C",[35],23.2%
CC(C)c1c(-c2ccccc2)nc2c(C#N)c[nH]n2c1=O + Cc1cncc(-c2nc(NCCc3c[nH]c4ccccc34)c3ncn(C(C)C)c3n2)c1,pIC50,[1],< 5.00
same,pIC50,[2],< 5.00
same,pIC50,[3],< 5.00
same,pIC50,[4],< 5.00
same,pIC50,[5],6.41
same,"viability, T/C",[6],103%
same,"viability, T/C",[7],95.1%
same,"viability, T/C",[8],89.7%
same,"viability, T/C",[9],98.8%
same,"viability, T/C",[10],97.4%
same,"viability, T/C",[11],97.2%
same,"viability, T/C",[12],98.7%
same,"viability, T/C",[13],98.8%
same,"viability, T/C",[14],95.8%
same,"viability, T/C",[15],99.8%
same,"viability, T/C",[16],100%
same,"viability, T/C",[17],92.7%
same,"viability, T/C",[18],91.2%
same,"viability, T/C",[19],85.6%
same,"viability, T/C",[20],88.9%
same,"viability, T/C",[21],83.5%
same,"viability, T/C",[22],75.4%
same,"viability, T/C",[23],78.1%
same,"viability, T/C",[24],76.4%
same,"viability, T/C",[25],76.3%
same,"viability, T/C",[26],79%
same,"viability, T/C",[27],67.1%
same,"viability, T/C",[28],65.3%
same,"viability, T/C",[29],62%
same,"viability, T/C",[30],51%
same,"viability, T/C",[31],50.1%
same,"viability, T/C",[32],56.2%
same,"viability, T/C",[33],46.1%
same,"viability, T/C",[34],43.9%
same,"viability, T/C",[35],42.6%
Cc1cncc(-c2nc(NCCc3c[nH]c4ccccc34)c3ncn(C(C)C)c3n2)c1,"viability, T/C",compound 0.1 µM,90.8% [middle of 20 runs]
same,"viability, T/C",compound 0.316 µM,89.1% [middle of 20 runs]
same,"viability, T/C",compound 1 µM,80.5% [middle of 20 runs]
same,"viability, T/C",compound 10 µM,47.8% [middle of 20 runs]
NS(=O)(=O)OCC1CC(n2ccc3c(NC4CCc5ccccc54)ncnc32)CC1O (stereo unspecified),"viability, T/C",compound 0.0316 µM,126% and 115% and 113%
same,"viability, T/C",compound 0.1 µM,106% and 81.2% and 99.9%
same,"viability, T/C",compound 0.316 µM,27.1% and 16.2% and 25.9%
same,"viability, T/C",compound 1 µM,6.6% and 3.53% and 5.82%
same,"viability, T/C",compound 3.16 µM,5.73% and 3.02% and 4.02%
same,"viability, T/C",compound 10 µM,5.17% and 3.01% and 3.79%
same,pIC50,curve of compound,6.65 and 6.76 and 6.66
Nc1ccn(C2OC(CO)C(O)C2(F)F)c(=O)n1 (stereo unspecified) + Cc1ccccc1N=Nc1ccc(NC(=O)c2ccnn2C)c(C)c1,pIC50,[1],> 7.50
same,pIC50,[2],> 7.50
same,pIC50,[3],> 7.50
same,pIC50,[4],> 7.50
same,pIC50,[5],> 7.50
same,"viability, T/C",[6],8.08%
same,"viability, T/C",[7],7.37%
same,"viability, T/C",[8],8.63%
same,"viability, T/C",[9],7.79%
same,"viability, T/C",[10],8.32%
same,"viability, T/C",[11],6.76%
same,"viability, T/C",[12],8.99%
same,"viability, T/C",[13],7.65%
same,"viability, T/C",[14],8.65%
same,"viability, T/C",[15],8.07%
same,"viability, T/C",[16],8.01%
same,"viability, T/C",[17],7.23%
same,"viability, T/C",[18],8.29%
same,"viability, T/C",[19],8.55%
same,"viability, T/C",[20],9.53%
same,"viability, T/C",[21],8.8%
same,"viability, T/C",[22],11.7%
same,"viability, T/C",[23],7.88%
same,"viability, T/C",[24],8.95%
same,"viability, T/C",[25],7.07%
same,"viability, T/C",[26],7.3%
same,"viability, T/C",[27],10.1%
same,"viability, T/C",[28],8.53%
same,"viability, T/C",[29],5.4%
same,"viability, T/C",[30],8.79%
same,"viability, T/C",[31],9.42%
same,"viability, T/C",[32],7.46%
same,"viability, T/C",[33],10.9%
same,"viability, T/C",[34],9.28%
same,"viability, T/C",[35],6.09%
CC[C@@]1(O)C(=O)OCc2c1cc1n(c2=O)Cc2cc3c(CN(C)C)c(O)ccc3nc2-1 + Cc1cncc(-c2nc(NCCc3c[nH]c4ccccc34)c3ncn(C(C)C)c3n2)c1,pIC50,[1],7.41
same,pIC50,[2],7.55
same,pIC50,[3],7.52
same,pIC50,[4],7.68
same,pIC50,[5],8.92
same,"viability, T/C","second compound 0.1 µM, first compound 0.000316 µM",90.2%
same,"viability, T/C","second compound 0.1 µM, first compound 0.001 µM",90.4%
same,"viability, T/C","second compound 0.1 µM, first compound 0.00316 µM",89.5%
same,"viability, T/C","second compound 0.1 µM, first compound 0.01 µM",68.1%
same,"viability, T/C",[6],58.9%
same,"viability, T/C",[7],23.3%
same,"viability, T/C","second compound 0.316 µM, first compound 0.000316 µM",89.1%
same,"viability, T/C","second compound 0.316 µM, first compound 0.001 µM",92.8%
same,"viability, T/C","second compound 0.316 µM, first compound 0.00316 µM",87.8%
same,"viability, T/C","second compound 0.316 µM, first compound 0.01 µM",67.4%
same,"viability, T/C",[12],49.6%
same,"viability, T/C",[13],23.7%
same,"viability, T/C","second compound 1 µM, first compound 0.000316 µM",91%
same,"viability, T/C","second compound 1 µM, first compound 0.001 µM",90.6%
same,"viability, T/C","second compound 1 µM, first compound 0.00316 µM",80.9%
same,"viability, T/C","second compound 1 µM, first compound 0.01 µM",60.3%
same,"viability, T/C",[18],54%
same,"viability, T/C",[19],24.1%
same,"viability, T/C","second compound 3.16 µM, first compound 0.000316 µM",69.9%
same,"viability, T/C","second compound 3.16 µM, first compound 0.001 µM",67.7%
same,"viability, T/C","second compound 3.16 µM, first compound 0.00316 µM",73.2%
same,"viability, T/C","second compound 3.16 µM, first compound 0.01 µM",59.4%
same,"viability, T/C",[24],44.2%
same,"viability, T/C",[25],22.2%
same,"viability, T/C","second compound 10 µM, first compound 0.000316 µM",52.1%
same,"viability, T/C","second compound 10 µM, first compound 0.001 µM",49.1%
same,"viability, T/C","second compound 10 µM, first compound 0.00316 µM",50.1%
same,"viability, T/C","second compound 10 µM, first compound 0.01 µM",37.5%
same,"viability, T/C",[30],33.4%
same,"viability, T/C",[31],24.2%
